In patent US20250170248A1, “SMARCA DEGRADERS AND USES THEREOF” (Kymera Therapeutics, Inc., priority 2021, published 2025):

Assays:
Assay type in all cases: cell-based
SMARCA2 [1] = target: T1, SMARCA2 (Homo sapiens, UniProt P51531); assay: MSD SMARCA2 degradation in A549 cell line; settings: for Dmax: A549, A549 cells; for Dmax / DC50: 24 h; for DC50: read-out: SMARCA2 MSD A549 degradation 24 h: Average external-Abs DC50
How it was run: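 A549 cells treated 24 h with compound, 3-fold series from 1000 nM. Lysates captured on MSD plates and SMARCA2 quantified with anti-SMARCA2 and SULFO-TAG secondary antibodies (electrochemiluminescence). DC50 and Dmax (% degradation at 24 h) reported as letter bins.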

SMARCA4 = target: T2, SMARCA4 (Homo sapiens, UniProt P51532); assay: SMARCA4 Western blot degradation in MV4-11 cells; settings: for Dmax: MV4-11, MV4-11 cells, read-out: SMARCA4 MSD MV411 degradation 24 h: average Dmax %; for Dmax / DC50: 24 h; for DC50: read-out: SMARCA4 MSD MV411 degradation 24 h: Mean external-Abs DC50
T2 construct: SMARCA2/SMARCA4 protein degradation selectivity in MV4-11 cells; endogenous in cells; host or cells: MV4-11
T2 sequence (P51532 whole entry): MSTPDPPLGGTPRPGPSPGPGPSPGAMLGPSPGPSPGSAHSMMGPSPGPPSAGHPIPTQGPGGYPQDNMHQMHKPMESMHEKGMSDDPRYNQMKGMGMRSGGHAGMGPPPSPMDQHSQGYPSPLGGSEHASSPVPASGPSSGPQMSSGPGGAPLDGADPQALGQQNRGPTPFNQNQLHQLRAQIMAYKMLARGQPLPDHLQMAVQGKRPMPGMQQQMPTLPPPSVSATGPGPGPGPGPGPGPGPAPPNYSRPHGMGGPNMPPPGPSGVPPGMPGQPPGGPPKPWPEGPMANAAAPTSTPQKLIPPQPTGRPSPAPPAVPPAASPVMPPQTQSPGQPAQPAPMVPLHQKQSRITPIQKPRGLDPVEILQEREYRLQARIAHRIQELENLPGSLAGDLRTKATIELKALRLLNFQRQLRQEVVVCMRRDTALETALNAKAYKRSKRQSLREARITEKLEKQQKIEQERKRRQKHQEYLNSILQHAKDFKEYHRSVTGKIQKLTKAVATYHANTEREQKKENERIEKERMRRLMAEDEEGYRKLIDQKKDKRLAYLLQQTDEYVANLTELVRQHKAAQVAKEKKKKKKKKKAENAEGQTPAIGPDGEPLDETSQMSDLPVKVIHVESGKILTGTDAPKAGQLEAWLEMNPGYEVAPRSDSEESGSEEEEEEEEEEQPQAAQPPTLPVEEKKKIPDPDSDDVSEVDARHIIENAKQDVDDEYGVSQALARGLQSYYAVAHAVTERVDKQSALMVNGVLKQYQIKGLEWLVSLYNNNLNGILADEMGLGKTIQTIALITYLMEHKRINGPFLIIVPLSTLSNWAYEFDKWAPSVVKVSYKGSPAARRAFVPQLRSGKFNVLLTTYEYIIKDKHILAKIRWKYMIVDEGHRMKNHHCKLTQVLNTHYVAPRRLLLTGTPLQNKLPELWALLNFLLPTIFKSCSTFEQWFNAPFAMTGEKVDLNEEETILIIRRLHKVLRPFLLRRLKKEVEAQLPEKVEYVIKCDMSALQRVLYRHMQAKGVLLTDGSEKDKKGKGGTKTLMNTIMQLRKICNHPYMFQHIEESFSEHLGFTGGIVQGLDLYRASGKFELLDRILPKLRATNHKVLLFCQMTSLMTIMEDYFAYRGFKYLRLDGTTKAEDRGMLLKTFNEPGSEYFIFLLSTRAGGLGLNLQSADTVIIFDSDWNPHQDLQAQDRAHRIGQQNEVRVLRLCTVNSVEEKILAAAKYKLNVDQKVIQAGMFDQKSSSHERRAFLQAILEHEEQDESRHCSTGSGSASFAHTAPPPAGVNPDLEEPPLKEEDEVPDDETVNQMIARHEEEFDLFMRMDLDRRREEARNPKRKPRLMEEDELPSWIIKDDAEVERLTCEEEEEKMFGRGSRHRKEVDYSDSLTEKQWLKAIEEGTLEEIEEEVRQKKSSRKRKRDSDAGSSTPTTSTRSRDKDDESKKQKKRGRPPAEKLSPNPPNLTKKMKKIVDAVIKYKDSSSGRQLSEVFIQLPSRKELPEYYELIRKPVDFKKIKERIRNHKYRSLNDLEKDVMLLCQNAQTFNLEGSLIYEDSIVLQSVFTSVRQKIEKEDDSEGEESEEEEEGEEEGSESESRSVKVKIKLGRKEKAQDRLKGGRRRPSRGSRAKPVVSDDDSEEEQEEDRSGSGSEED
How it was run: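 24 h compound exposure, MV4-11; RIPA lysates → SDS-PAGE → NC membrane; anti-SMARCA2/BRM, anti-BRG1, β-actin loading control; LI-COR fluorescence read. DC50 and Dmax at 24 h reported as letter bins.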

SMARCA2 [2] = target: T1, SMARCA2; assay: SMARCA2 Western blot degradation in MV4-11 cells; parameters: SMARCA2/SMARCA4 protein degradation selectivity in MV4-11 cells; endogenous in cells; host or cells: MV4-11; settings: for Dmax: MV4-11, MV4-11 cells, read-out: SMARCA2 MSD MV411 degradation 24 h: average Dmax %; for DC50: read-out: SMARCA2 MSD MV411 degradation 24 h: Mean external-Abs DC50; for Selectivity in MV411: SMARCA2/4 selectivity

T1 sequence (P51531 whole entry): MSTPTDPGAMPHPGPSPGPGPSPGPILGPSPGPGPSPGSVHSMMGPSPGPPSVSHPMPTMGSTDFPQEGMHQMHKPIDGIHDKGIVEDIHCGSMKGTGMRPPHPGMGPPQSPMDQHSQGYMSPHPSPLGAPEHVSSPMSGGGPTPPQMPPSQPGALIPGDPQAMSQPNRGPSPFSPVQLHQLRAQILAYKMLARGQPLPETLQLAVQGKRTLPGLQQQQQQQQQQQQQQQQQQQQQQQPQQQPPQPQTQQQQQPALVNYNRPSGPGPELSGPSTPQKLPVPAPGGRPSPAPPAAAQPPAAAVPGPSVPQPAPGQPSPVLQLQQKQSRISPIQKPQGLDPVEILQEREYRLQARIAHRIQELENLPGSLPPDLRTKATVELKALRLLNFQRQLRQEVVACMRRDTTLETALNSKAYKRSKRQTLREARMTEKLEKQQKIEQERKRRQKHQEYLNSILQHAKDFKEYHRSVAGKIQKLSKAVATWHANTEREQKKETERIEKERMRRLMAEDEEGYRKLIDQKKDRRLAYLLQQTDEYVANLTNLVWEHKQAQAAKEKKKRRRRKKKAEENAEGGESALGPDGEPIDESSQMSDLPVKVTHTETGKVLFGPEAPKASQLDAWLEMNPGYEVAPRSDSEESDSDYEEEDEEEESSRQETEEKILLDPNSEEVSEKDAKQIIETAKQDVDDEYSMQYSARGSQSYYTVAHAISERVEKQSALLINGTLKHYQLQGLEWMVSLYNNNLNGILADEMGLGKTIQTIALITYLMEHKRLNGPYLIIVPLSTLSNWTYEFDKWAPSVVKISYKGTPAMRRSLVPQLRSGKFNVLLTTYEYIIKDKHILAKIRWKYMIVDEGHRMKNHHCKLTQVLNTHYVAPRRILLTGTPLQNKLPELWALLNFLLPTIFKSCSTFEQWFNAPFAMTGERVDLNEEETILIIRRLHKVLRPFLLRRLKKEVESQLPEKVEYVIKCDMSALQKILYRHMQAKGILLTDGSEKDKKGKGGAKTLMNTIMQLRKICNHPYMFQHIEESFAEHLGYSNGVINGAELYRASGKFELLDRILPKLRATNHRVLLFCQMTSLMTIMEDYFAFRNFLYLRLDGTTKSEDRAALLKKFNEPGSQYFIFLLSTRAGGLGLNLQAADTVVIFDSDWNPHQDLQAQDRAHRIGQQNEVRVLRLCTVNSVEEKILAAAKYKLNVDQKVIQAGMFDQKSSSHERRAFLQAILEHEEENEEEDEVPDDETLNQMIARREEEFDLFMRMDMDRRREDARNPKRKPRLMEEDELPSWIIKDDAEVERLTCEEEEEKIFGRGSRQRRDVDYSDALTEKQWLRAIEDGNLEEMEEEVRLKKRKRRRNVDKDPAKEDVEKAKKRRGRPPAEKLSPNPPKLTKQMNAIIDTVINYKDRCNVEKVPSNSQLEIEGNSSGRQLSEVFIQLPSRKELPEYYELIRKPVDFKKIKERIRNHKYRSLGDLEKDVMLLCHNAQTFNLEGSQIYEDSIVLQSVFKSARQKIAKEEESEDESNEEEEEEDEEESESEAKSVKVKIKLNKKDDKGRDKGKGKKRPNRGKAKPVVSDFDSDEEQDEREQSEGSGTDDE

Compound | Dmax (SMARCA2 [1]) | DC50 (SMARCA2 [1]; A549 cells) | Dmax (SMARCA4) | DC50 (SMARCA4; MV4-11 cells) | Dmax (SMARCA2 [2]; 24 h) | DC50 (SMARCA2 [2]; MV4-11 cells, 24 h) | Selectivity in MV411 (SMARCA2 [2]; MV4-11 cells) | SMARCA2 MSD A549 degradation 24 h: Average Dmax % (SMARCA2 [1]; A549 cells) | SMARCA4 MSD MV411 degradation 24 h: average Dmax % (SMARCA4; MV4-11 cells) | SMARCA2 MSD MV411 degradation 24 h: average Dmax % (SMARCA2 [2]; MV4-11 cells, 24 h)
C#Cc1ccc(CNC(=O)[C@@H]2C[C@@H](O)CN2C(=O)[C@@H](NC(=O)[C@H]2CCC3(CC2)C[C@H](N2CCN(c4cnc(N5CCN6c7cc(-c8ccccc8O)nnc7NC[C@H]6C5)nc4)CC2)C3)C(C)(C)C)c(OC)c1 (single isomer, unassigned) [I-195] | > 90% | 10 to 50 nM | 70 to 90% | 10 to 100 nM | > 90% | 1 to 10 nM | C (C (10-100 fold)) |  |  | 
C#Cc1ccc(CNC(=O)[C@@H]2C[C@@H](O)CN2C(=O)[C@H](NC(=O)[C@H]2CCC3(CC2)C[C@H](N2CCN(c4cnc(N5CCN6c7cc(-c8ccccc8O)nnc7NC[C@H]6C5)nc4)CC2)C3)C(C)(C)CCO)c(Cl)c1 (single isomer, unassigned) [I-306] | < 50% | > 100 nM | < 50% | > 100 nM | < 50% | > 100 nM | D (D (<10 fold)) |  |  | 
Cc1ncsc1-c1ccc(CNC(=O)[C@@H]2C[C@@H](O)CN2C(=O)C(c2cc(OCCCCN3CCC(c4cnc(N5CCN6c7cc(-c8ccccc8O)nnc7NC[C@@H]6C5)nc4)CC3)no2)C(C)C)cc1 (stereo partly drawn) [I-51, (2S,4R)-4-hydroxy-1-(2-(3-(4-(4-(2-((R)-2-(2-hydroxyphenyl)-6a,7,9,10-tetrahydro-5H-pyrazino[1′,2′:4,5]pyrazino[2,3-c]pyridazin-8(6H)-yl)pyrimidin-5-yl)piperidin-1-yl)butoxy)isoxazol-5-yl)-3-methylbutanoyl)-N-(4-(4-methylthiazol-5-yl)benzyl)pyrrolidine-2-carboxamide] | 70 to 90% | 10 to 50 nM | > 90% | 1 to 10 nM | > 90% | < 1 nM | D (D (<10 fold)) |  |  | 
C#Cc1ccc(CNC(=O)[C@@H]2C[C@@H](O)CN2C(=O)[C@@H](NC(=O)[C@H]2CCC3(CC2)C[C@H](N2CCC(N4CC5(CC(N6CCN7c8cc(-c9ccccc9O)nnc8NC[C@H]7C6)C5)C4)CC2)C3)C(C)(C)C)c(Cl)c1 (single isomer, unassigned) [I-220] | > 90% | > 100 nM | < 50% | > 100 nM | 70 to 90% | 10 to 100 nM | B (B (>100-500 fold)) |  |  | 
C#Cc1c(F)cc(CNC(=O)[C@@H]2C[C@@H](O)CN2C(=O)[C@@H](NC(=O)N2CC3(CC(N4CCC(c5cnc(N6CCc7[nH]c8nnc(-c9ccccc9O)cc8c7[C@H]6C)nc5)CC4)C3)C2)C(C)(C)C)cc1F [I-402] | > 90% | 10 to 50 nM | > 90% | > 100 nM | 70 to 90% | 1 to 10 nM | C (C (10-100 fold)) |  |  | 
C#Cc1ccc(CNC(=O)[C@@H]2C[C@@H](O)CN2C(=O)[C@@H](NC(=O)N2CCC[C@H](CN3CCC(N4CCC(N5CCN6c7cc(-c8ccccc8O)nnc7NC[C@H]6C5)CC4)CC3)C2)C(C)(C)C)cc1 [I-256] | < 50% | > 100 nM | < 50% | > 100 nM | < 50% | > 100 nM | D (D (<10 fold)) |  |  | 
C#Cc1ccc(CNC(=O)[C@@H]2C[C@@H](O)CN2C(=O)[C@@H](NC(=O)[C@H]2CCC3(CC2)C[C@H](N2CCN(c4cnc(N5CCN6c7cc(-c8ccccc8O)nnc7NC[C@H]6C5)nc4)CC2)C3)C(C)(C)CCO)cc1 (single isomer, unassigned) [I-287] | > 90% | < 10 nM | 50 to 70% | > 100 nM | 70 to 90% | 1 to 10 nM | A (A (>500 fold)) |  |  | 

Next, values leading:

Dmax (SMARCA2 [1]) | DC50 (SMARCA2 [1]; A549 cells) | Dmax (SMARCA4) | DC50 (SMARCA4; MV4-11 cells) | Dmax (SMARCA2 [2]; 24 h) | DC50 (SMARCA2 [2]; MV4-11 cells, 24 h) | Selectivity in MV411 (SMARCA2 [2]; MV4-11 cells) | SMARCA2 MSD A549 degradation 24 h: Average Dmax % (SMARCA2 [1]; A549 cells) | SMARCA4 MSD MV411 degradation 24 h: average Dmax % (SMARCA4; MV4-11 cells) | SMARCA2 MSD MV411 degradation 24 h: average Dmax % (SMARCA2 [2]; MV4-11 cells, 24 h) | Compound
50 to 70% | > 100 nM | < 50% | > 100 nM | < 50% | > 100 nM | D (D (<10 fold)) |  |  |  | C#Cc1ccc2c(c1)OCC[C@@H]2NC(=O)[C@@H]1C[C@@H](O)CN1C(=O)[C@@H](NC(=O)N1CC2(CC(N3CCC(c4cnc(N5CCc6[nH]c7nnc(-c8ccccc8O)cc7c6[C@H]5C)nc4)CC3)C2)C1)C(C)(C)C (single isomer, unassigned) [I-235]
< 50% | > 100 nM | < 50% | > 100 nM | < 50% | > 100 nM | C (C (10-100 fold)) |  |  |  | C#Cc1ccc(CNC(=O)[C@@H]2C[C@@H](O)CN2C(=O)[C@@H](NC(=O)N2CC3(CC(N4CCC(c5cnc(N6CCc7[nH]c8nnc(-c9ccccc9O)cc8c7[C@H]6C)nc5)CC4)C3)C2)C(C)(C)CCN2CCN[C@H](C(=O)O)C2)cc1 [I-344]
 | 50 to 100 nM |  | > 100 nM |  | 1 to 10 nM | B (B (>100-500 fold)) | A (A (>90% degradation)) | D (D (<50% degradation)) | B (B (>70-90% degradation)) | C#Cc1ccc(CNC(=O)[C@@H]2C[C@@H](O)CN2C(=O)[C@@H](NC(=O)[C@H]2CCC3(CC2)C[C@H](N2CCC(N4CC5(CC(N6CCN7c8cc(-c9ccccc9O)nnc8NC[C@H]7C6)C5)C4)CC2)C3)C(C)(C)C)cc1 (single isomer, unassigned) [I-237]
70 to 90% | > 100 nM | < 50% | > 100 nM | < 50% | > 100 nM | C (C (10-100 fold)) |  |  |  | C#Cc1ccc(CNC(=O)[C@@H]2C[C@@H](O)CN2C(=O)[C@@H](NC(=O)N2CCC(N3CCC(N4CC5(CC(N6CCc7[nH]c8nnc(-c9ccccc9O)cc8c7[C@H]6C)C5)C4)CC3)CC2)C(C)(C)C)cc1 [I-208]
> 90% | > 100 nM | < 50% | > 100 nM | 50 to 70% | 10 to 100 nM | C (C (10-100 fold)) |  |  |  | C#Cc1ccc(CNC(=O)[C@@H]2C[C@@H](O)CN2C(=O)[C@@H](NC(=O)N2CC3(CC(N4C[C@H]5CN(c6cnc(N7CCc8[nH]c9nnc(-c%10ccccc%10O)cc9c8[C@H]7C)nc6)C[C@H]5C4)C3)C2)C(C)(C)C)cc1 [I-171]
> 90% | 10 to 50 nM | 70 to 90% | > 100 nM | 70 to 90% | 1 to 10 nM | C (C (10-100 fold)) |  |  |  | C#Cc1ccc(CNC(=O)[C@@H]2C[C@@H](O)CN2C(=O)[C@@H](NC(=O)N2CC3(CC(N4CCC(c5cnc(N6CCc7[nH]c8nnc(-c9ccccc9O)cc8c7[C@H]6CC)nc5)CC4)C3)C2)C(C)(C)C)cc1 [I-136]
> 90% | > 100 nM | < 50% | > 100 nM | 70 to 90% | 10 to 100 nM | C (C (10-100 fold)) |  |  |  | C#Cc1ccc([C@H](C)NC(=O)[C@@H]2C[C@@H](O)CN2C(=O)[C@@H](NC(=O)N2CC3(CC(N4CCC(N5CCC(N6CCc7[nH]c8nnc(-c9ccccc9O)cc8c7[C@H]6C)CC5)CC4)C3)C2)C(C)(C)C)cc1 [I-212]
> 90% | < 10 nM | > 90% | > 100 nM | > 90% | 1 to 10 nM | C (C (10-100 fold)) |  |  |  | C#Cc1ccc(CNC(=O)[C@@H]2C[C@@H](O)CN2C(=O)[C@@H](NC(=O)N2CC3(CC(N4CCC(c5cnc(N6CCc7[nH]c8nnc(-c9ccccc9O)cc8c7[C@H]6C)nc5)CC4)C3)C2)C(C)(C)C)c(C)c1 [I-270]
> 90% | > 100 nM | > 90% | > 100 nM | 70 to 90% | 10 to 100 nM | D (D (<10 fold)) |  |  |  | C#Cc1ccc(CNC(=O)[C@@H]2C[C@@H](O)CN2C(=O)[C@@H](NC(=O)N2CC3(CC(N4CCC(c5cnc(N6CCc7[nH]c8nnc(-c9ccccc9O)cc8c7[C@@H]6C)nc5)CC4)C3)C2)C(C)(C)C)cc1 [I-228]
> 90% | > 100 nM | 50 to 70% | > 100 nM | 70 to 90% | 1 to 10 nM | C (C (10-100 fold)) |  |  |  | C#Cc1ccc(CNC(=O)[C@@H]2C[C@@H](O)CN2C(=O)[C@@H](NC(=O)C2CCN(C[C@H]3CC[C@@H](N4CCc5[nH]c6nnc(-c7ccccc7O)cc6c5[C@H]4C)CC3)CC2)C(C)(C)C)cc1 (single isomer, unassigned) [I-201]
> 90% | 50 to 100 nM | < 50% | > 100 nM | 70 to 90% | 1 to 10 nM | B (B (>100-500 fold)) |  |  |  | C#Cc1ccc([C@H](CO)NC(=O)[C@@H]2C[C@@H](O)CN2C(=O)[C@@H](NC(=O)N2CC3(CC(N4CCC(c5cnc(N6CCc7[nH]c8nnc(-c9ccccc9O)cc8c7[C@H]6C)nc5)CC4)C3)C2)C(C)(C)C)nc1 (single isomer, unassigned) [I-304]
